Results as given in patent US8481690B2, “Methods for detecting symmetrical dimethylarginine” (IDEXX Laboratories, Inc., priority 2008, dated 2013).
Converted amounts (≈) assume the structure as drawn.

How the values were obtained:
Type in all cases: binding
[1] = tested on: rabbit anti-SDMA antibody in serum, Rabbit # 152 (SDMA conjugated with KLH immunogen); assay: Competitive ELISA, specificity of anti-SDMA antibody, Rabbit # 152; conditions: Rabbit # 152 (1:5K); for % Cross Reactivity: IC50 of SDMA divided by IC50 of competitor x 100; for IC 50: competition with SDMA-HRP conjugate, absorbance reduced by 50%
Description: (§1) In order to assess the specificity of the antibodies obtained by the procedures described in Example 3 above, their reactivity to SDMA, ADMA, L-arginine, and/or N-methylarginine was measured in a competitive ELISA assay (Table 1).
(§2) ADMA-2HCl, SDMA-2HCl, N-methylarginine acetate (Sigma, Cat. No. M7033) or L-arginine (Sigma, Cat. No. A5006) were each dissolved in PBS to make stock solutions at 1 mg/ml. From these stock solutions, working solutions at 100 μg/ml, 10 μg/m and 1 μg/m were prepared in PBS.
(§3) […] After a 30 minutes incubation period at room temperature, the wells were washed 4 times with PBST (Phosphate Buffered Saline, 0.05% Tween).
(§4) 100 μl of 3,3′,5,5′-Tetramethylbenzidine (commercially available from Promega Corporation of Madison, Wis.) was subsequently added. Following a 30 minutes incubation period at room temperature, 100 μl of stop solution (1 N HCl) was added and the absorbance was measured at […] using a BioTek ELX 808 (Winooski, Vt.) plate reader. The data was subjected to quantification using Softmax software (Molecular Devices, Sunnyvale, Calif.).
(§5) The absorbance values obtained with 0 μg/mL, 1 μg/mL, 10 μg/mL, and 100 μg/mL of ADMA, SDMA, N-methylarginine or L-arginine, respectively, were determined and plotted. The concentration of SDMA at which the absorbance value was reduced by 50% (relative to the maximum absorbance obtained at 0 μg/mL SDMA; i.e. IC50) was divided by each of the concentrations of ADMA, N-methylarginine or L-arginine, respectively, at which the absorbance value was reduced by 50% (IC50). The resulting value was multiplied by 100 to obtain the value “% cross-reactivity”.

[2] = tested on: rabbit anti-SDMA antibody in serum, Rabbit # 153 (SDMA conjugated with KLH immunogen); assay: Competitive ELISA, specificity of anti-SDMA antibody, Rabbit # 153; conditions: Rabbit # 153 (1:2.5K); for IC 50: competition with SDMA-HRP conjugate
Description: as §1, §2, §3, §4, §5

[3] = tested on: rabbit anti-SDMA antibody in serum, Rabbit # 154 (SDMA conjugated with KLH immunogen); assay: Competitive ELISA, specificity of anti-SDMA antibody, Rabbit # 154; conditions: Rabbit # 154 (1.25K); for IC 50: competition with SDMA-HRP conjugate
Description: as §1, §2, §3, §4, §5

[4] = tested on: rabbit anti-SDMA antibody in serum, Rabbit # 155 (SDMA conjugated with BSA immunogen); assay: Competitive ELISA, specificity of anti-SDMA antibody, Rabbit # 155; conditions: Rabbit # 155 (1:3K); for IC 50: competition with SDMA-HRP conjugate
Description: as §1, §2
(§6) 50 μl of the SDMA-HRP conjugate (as described in Example 5 below), 50 μl of ADMA, SDMA, N-methylarginine or L-arginine (at concentrations from 1-100 μg/ml as described above), and 50 μl of rabbit anti-SDMA antibody in serum (1:3000 titer) were sequentially added to an individual well in a 96-well polystyrene microwell plate, precoated with sheep anti-rabbit IgG (commercially available from Beacon Analytical Systems Inc. of Portland, Me.). After a 30 minutes incubation period at room temperature, the wells were washed 4 times with PBST (Phosphate Buffered Saline, 0.05% Tween).
as §4, §5

[5] = tested on: rabbit anti-SDMA antibody in serum, Rabbit # 156 (SDMA conjugated with BSA immunogen); assay: Competitive ELISA, specificity of anti-SDMA antibody, Rabbit # 156; conditions: Rabbit # 156 (1:20K); for IC 50: competition with SDMA-HRP conjugate
Description: as §1, §2, §3, §4, §5

[6] = tested on: rabbit anti-SDMA antibody in serum, Rabbit # 157 (SDMA conjugated with BSA immunogen); assay: Competitive ELISA, specificity of anti-SDMA antibody, Rabbit # 157; conditions: Rabbit # 157 (1:15K); for IC 50: competition with SDMA-HRP conjugate
Description: as §1, §2, §3, §4, §5

[7] = tested on: polyclonal antibody from Rabbit No. 154; assay: Specificity determined with greater stringency, polyclonal antibody from Rabbit No. 154; conditions: Rabbit No. 154, greater stringency
Description: as §1, §2, §6, §4
The absorbance values obtained with 0 μg/mL, 1 μg/mL, 10 μg/mL, and 100 μg/mL of ADMA, SDMA, N-methylarginine or L-arginine, respectively, were determined and plotted. […]
In another experiment, using only polyclonal antibody from Rabbit No. 154, the specificity of the antibody was determined with greater stringency by the method described above.

Compound | % Cross Reactivity [1] [%] | IC 50 [1] [µg/mL] | % Cross Reactivity [2] [%] | IC 50 [2] [µg/mL] | % Cross Reactivity [3] [%] | IC 50 [3] [µg/mL] | % Cross Reactivity [4] [%] | IC 50 [4] [µg/mL] | % Cross Reactivity [5] [%] | IC 50 [5] [µg/mL] | % Cross Reactivity [6] [%] | IC 50 [6] [µg/mL] | Specificity (Cross-Reactivity) [7] [%]
CN(C)C(=N)NCCCC(N)C(=O)O (stereo not drawn) [ADMA, asymmetrical dimethylarginine] | <1 | >100 | <1 | >100 | <1 | >100 | <1 | >100 | <1 | >100 | <1 | >100 | <0.2
N=C(N)NCCC[C@H](N)C(=O)O [L-Arginine, arginine] | <1 | >100 | <1 | >100 | <1 | >100 | <1 | >100 | <1 | >100 | <1 | >100 | <0.01
CNC(=N)NCCCC(N)C(=O)O (stereo not drawn) [N-MMA, N-monomethylarginine] | <1 | >100 | <1 | >100 | <1 | >100 | <1 | 79 (≈ 420 µM) | <1 | >100 | <1 | >100 | 
C/N=C(\NC)NCCCC(N)C(=O)O (stereo not drawn) [SDMA, symmetrical dimethylarginine] | 100 | 1.10 (≈ 5.44 µM) | 100 | 0.65 (≈ 3.21 µM) | 100 | 0.49 (≈ 2.42 µM) | 100 | 0.73 (≈ 3.61 µM) | 100 | 1.3 (≈ 6.43 µM) | 100 | 1.6 (≈ 7.91 µM) | 100
